Reference: patent US20260226084A1, “DUAL RAF AND TUBULIN INHIBITORS AND METHODS OF USE THEREOF” (Deciphera Pharmaceuticals, LLC, priority 2023, published 2026)
Like-named read-outs stand apart in the source and are kept apart here.

How the values were obtained:
[1] = biological target: T1, C-Raf kinase (SEQ ID NO: 2) (Homo sapiens, UniProt P04049, Y340D/Y341D); assay: Biochemical Assay for C-Raf (coupled pyruvate kinase/lactate dehydrogenase assay); conditions: 1 mM ATP; read-out: CRAF (inhibition of biochemical activity, IC50)
T1 construct: C-Raf residues 306-end; Y340D, Y341D with; GST (N); purchased Sigma

[2] = system: MiaPaca-2 cells; assay: MiaPaca-2 Cell Proliferation Assay; type: cell-based; conditions: Table 2, read-out: Inhibition of cell proliferation in MiaPaca-2 (IC50 class)
How it was run: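 Viability was read as resazurin fluorescence (540 nm excitation, 600 nm emission) after 5–6 h with dye. Compounds were tested as serial dilutions in triplicate, with IC50 derived from the dose–response.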

[3] = biological target: T2, B-Raf kinase (SEQ ID NO: 1) (Homo sapiens, UniProt P15056); assay: Biochemical Assay for B-Raf (coupled pyruvate kinase/lactate dehydrogenase assay); conditions: 1 mM ATP; read-out: BRAF (inhibition of biochemical activity, IC50)
T2 construct: GST (N); purchased Sigma

[4] = system: HCT-116 cells; assay: HCT-116 Cell Proliferation Assay; type: cell-based; conditions: Table 2, read-out: Inhibition of cell proliferation in HCT-116 (IC50 class)
How it was run: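 HCT-116 cells, 375/well in McCoy's 5A with 10% FBS, exposed to serial compound dilutions in triplicate for 67 to 72 hours at 37 °C. Viability read by resazurin fluorescence (ex 540/em 600 nm) after a further 4 to 5 h; IC50 values calculated.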

[5] = system: HPAF-II cells; assay: HPAF-II Cell Proliferation Assay; type: cell-based; conditions: HPAF-II cells, Table 2, read-out: Inhibition of cell proliferation in HPAF-II (IC50 class)
How it was run: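 HPAF-II cells (750/well) in complete MEM with 10% FBS were exposed to serially diluted compound in triplicate for 115–120 h at 37 °C, 5% CO2. Resazurin was then added for 18–24 h more; fluorescence (ex 540/em 600 nm) gave IC50.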

[6] = system: Pa16c cells; assay: Pa16c Cell Proliferation Assay; type: cell-based; conditions: Table 2, read-out: Inhibition of cell proliferation in Pa16c (IC50 class)
How it was run: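 Mouse Pa16c cells, 750/well in DMEM with 10% FBS, exposed to serially diluted compound in triplicate for 67 to 72 h at 37° C. Viability read by resazurin reduction over a further 18 to 24 h (ex 540/em 600 nm). IC50 calculated from the dose-response.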

[7] = Homo sapiens, MIA PaCa-2, MiaPaca-2 cells
[8] = Homo sapiens, HCT-116, HCT-116 cells

T1 sequence (P04049 307-648 Y340D/Y341D): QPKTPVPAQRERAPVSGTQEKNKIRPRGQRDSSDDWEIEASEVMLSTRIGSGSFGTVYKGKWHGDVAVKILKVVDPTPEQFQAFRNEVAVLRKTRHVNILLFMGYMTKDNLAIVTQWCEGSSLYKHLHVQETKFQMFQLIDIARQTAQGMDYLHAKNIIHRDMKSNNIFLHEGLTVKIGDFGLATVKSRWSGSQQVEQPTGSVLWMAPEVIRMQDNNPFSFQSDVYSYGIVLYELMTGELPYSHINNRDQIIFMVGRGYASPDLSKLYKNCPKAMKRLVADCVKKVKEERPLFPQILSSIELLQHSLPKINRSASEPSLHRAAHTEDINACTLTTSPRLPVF
T2 sequence (P15056 416-766): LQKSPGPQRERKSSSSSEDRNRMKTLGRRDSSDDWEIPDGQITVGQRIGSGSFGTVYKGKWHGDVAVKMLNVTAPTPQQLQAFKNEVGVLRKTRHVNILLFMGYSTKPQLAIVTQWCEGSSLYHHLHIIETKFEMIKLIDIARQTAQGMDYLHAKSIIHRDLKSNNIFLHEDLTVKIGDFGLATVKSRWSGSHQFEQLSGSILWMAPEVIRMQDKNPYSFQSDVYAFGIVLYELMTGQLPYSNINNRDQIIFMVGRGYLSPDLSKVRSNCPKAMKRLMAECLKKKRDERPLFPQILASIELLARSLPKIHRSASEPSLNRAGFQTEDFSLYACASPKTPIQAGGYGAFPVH

Structure (SMILES) | IC50 [1] | IC50 [2, 7] | IC50 [3] | IC50 [4, 8] | IC50 ([5]; Homo sapiens, HPAF-II) | IC50 [6] | IC50 ([2]; MiaPaca-2 cells) | IC50 ([4]; HCT-116 cells) | IC50 [5]
Cc1ccc(NC(=O)c2cnc(C(F)(F)F)cn2)cc1-c1ccnc(-c2ccnc(NC(=O)C3CC3)c2)c1 [Example 56] | < 100 nM | 500 to 1000 nM | 100 to 500 nM | 500 to 1000 nM | 1000 to 10000 nM | 1000 to 10000 nM | – | – | –
Cc1ccc(NC(=O)c2cc(C3CC3)cnn2)cc1-c1ccnc(-c2ccoc2)c1 [Example 147] | 100 to 500 nM | 100 to 500 nM | 100 to 500 nM | 100 to 500 nM | 100 to 500 nM | 100 to 500 nM | – | – | –
Cc1cc(-c2cc(NC(=O)c3cncc(C(F)(F)F)c3)ccc2C)cc(-c2ccnc(NC(=O)C3CC3)c2)n1 [Example 81] | < 100 nM | – | < 100 nM | – | – | 1000 to 10000 nM | 1000 to 10000 nM | 100 to 500 nM | 1000 to 10000 nM
Cc1ccc(NC(=O)c2cc(C(F)(F)F)cnn2)cc1-c1cc(N[C@H](C)CO)nc(-c2cn[nH]c2C)c1 [Example 120] | < 100 nM | < 100 nM | < 100 nM | 100 to 500 nM | 100 to 500 nM | 100 to 500 nM | – | – | –
Cc1ccc(NC(=O)c2cc(C3CC3)cnn2)cc1-c1cc(NCCO)nc(-c2ccnc(NC(=O)C3CC3)c2)c1 [Example 100] | < 100 nM | 100 to 500 nM | < 100 nM | < 100 nM | 100 to 500 nM | < 100 nM | – | – | –
Cc1ccc(NC(=O)c2cc(C(C)C)cnn2)cc1-c1ccnc(-c2ccnc(NC(=O)C3CC3)c2)c1 [Example 38] | < 100 nM | 100 to 500 nM | < 100 nM | 100 to 500 nM | 100 to 500 nM | 500 to 1000 nM | – | – | –
CNCC(=O)Nc1cc(-c2cc(-c3cc(NC(=O)c4cc(C5CC5)cnn4)ccc3C)ccn2)ccn1 [Example 107] | < 100 nM | 100 to 500 nM | < 100 nM | 100 to 500 nM | 100 to 500 nM | 100 to 500 nM | – | – | –
Cc1ccc(NC(=O)c2ccc(C(F)(F)F)nn2)cc1-c1cncc(-c2cc(NC(=O)C3CC3)ncn2)c1 [Example 23] | < 100 nM | 1000 to 10000 nM | < 100 nM | 1000 to 10000 nM | 1000 to 10000 nM | 1000 to 10000 nM | – | – | –
Cc1ccc(NC(=O)c2cc(C(C)(F)F)cnn2)cc1-c1cc(NCCO)nc(-c2ccnc(NC(=O)C3CC3)c2)c1 [Example 101] | < 100 nM | 100 to 500 nM | < 100 nM | < 100 nM | 100 to 500 nM | < 100 nM | – | – | –
Cc1ccc(NC(=O)c2cc(C(F)(F)F)cnn2)cc1-c1cc(N[C@H](C)CO)nc(-c2c(C)n[nH]c2C)c1 [Example 122] | < 100 nM | 100 to 500 nM | 100 to 500 nM | 100 to 500 nM | 500 to 1000 nM | 100 to 500 nM | – | – | –
Cc1ccc(NC(=O)c2cc(C(C)(F)F)cnn2)cc1-c1ccnc(-c2ccsc2)c1 [Example 148] | 500 to 1000 nM | 100 to 500 nM | 1000 to 10000 nM | < 100 nM | 100 to 500 nM | 100 to 500 nM | – | – | –
Cc1ccc(NC(=O)c2cc(C(F)(F)F)cnn2)cc1-c1cncc(-c2cc(NC=O)ncn2)c1 [Example 124] | < 100 nM | 100 to 500 nM | < 100 nM | 500 to 1000 nM | 500 to 1000 nM | 500 to 1000 nM | – | – | –
Cc1ccc(NC(=O)c2cc(C(C)(F)F)cnn2)cc1-c1ccnc(-c2cscn2)c1 [Example 143] | 1000 to 10000 nM | 100 to 500 nM | 1000 to 10000 nM | 100 to 500 nM | 100 to 500 nM | 1000 to 10000 nM | – | – | –
Cc1cc(-c2cc(NC(=O)c3cncc(C(C)(F)F)c3)ccc2C)cc(-c2ccnc(NC(=O)C3CC3)c2)n1 [Example 16] | < 100 nM | 500 to 1000 nM | < 100 nM | 100 to 500 nM | 1000 to 10000 nM | 1000 to 10000 nM | – | – | –
Cc1ccc(NC(=O)c2cc(C(F)(F)F)cnn2)cc1-c1cc(OCCO)nc(-c2ccnc(NC(=O)C3CC3)c2)c1 [Example 131] | < 100 nM | 100 to 500 nM | < 100 nM | < 100 nM | 100 to 500 nM | 100 to 500 nM | – | – | –
Cc1ccc(NC(=O)c2cc(C(F)(F)F)cnn2)cc1-c1cncc(-c2cc(NC(=O)C(F)(F)F)ncn2)c1 [Example 125] | < 100 nM | 500 to 1000 nM | < 100 nM | 500 to 1000 nM | 500 to 1000 nM | 500 to 1000 nM | – | – | –
Cc1ccc(NC(=O)c2ccc(C(C)(F)F)nc2)cc1-c1ccnc(-c2ccnc(NC(=O)C3CC3)c2)c1 [Example 80] | < 100 nM | 100 to 500 nM | < 100 nM | 100 to 500 nM | 100 to 500 nM | 100 to 500 nM | – | – | –
Cc1ccc(NC(=O)c2cc(C(F)(F)F)cnn2)cc1-c1cc(OCCO)nc(-c2cn[nH]c2)c1 [Example 116] | < 100 nM | < 100 nM | < 100 nM | < 100 nM | < 100 nM | < 100 nM | – | – | –
Cc1ccc(NC(=O)c2cc(C(F)(F)F)cnn2)cc1-c1cccc(-c2cc(NC(=O)C3CC3)ncn2)c1 [Example 11] | < 100 nM | 500 to 1000 nM | < 100 nM | 100 to 500 nM | 500 to 1000 nM | 1000 to 10000 nM | – | – | –
Cc1ccc(NC(=O)c2cc(C3CC3)cnn2)cc1-c1cc(OCCO)nc(-c2ccnc(NC(=O)C3CC3)c2)c1 [Example 104] | < 100 nM | 500 to 1000 nM | < 100 nM | 100 to 500 nM | 100 to 500 nM | 100 to 500 nM | – | – | –
Cc1ccc(NC(=O)c2cc(C(C)(F)F)cnn2)cc1-c1ccnc(-c2cnn(C)c2)c1 [Example 150] | < 100 nM | 100 to 500 nM | 100 to 500 nM | 100 to 500 nM | 100 to 500 nM | 500 to 1000 nM | – | – | –
Cc1ccc(NC(=O)c2cc(C(F)(F)F)cnn2)cc1-c1ccnc(-c2cnn(C)c2)c1 [Example 114] | < 100 nM | 100 to 500 nM | 100 to 500 nM | 100 to 500 nM | 100 to 500 nM | 100 to 500 nM | – | – | –
Cc1ccc(NC(=O)c2cc3c(nn2)CCC3)cc1-c1ccnc(-c2ccnc(NC(=O)C3CC3)c2)c1 [Example 98] | < 100 nM | 1000 to 10000 nM | < 100 nM | 1000 to 10000 nM | 1000 to 10000 nM | 1000 to 10000 nM | – | – | –
Cc1ccc(NC(=O)c2cc(C(C)(F)F)cnn2)cc1-c1ccnc(-c2cnsc2)c1 [Example 137] | < 100 nM | 100 to 500 nM | 100 to 500 nM | 100 to 500 nM | 100 to 500 nM | 500 to 1000 nM | – | – | –
